Here are results for seven compounds from patent publication US20030170693A1, “Assay for identifying modulators of Borrelia telomere resolvase” (priority 2001, published 2003).

Read-outs that look alike come from different tables or passages of the source.

For one experiment, the target named is T1, ResT (Borreliella burgdorferi, UniProt O50979).
T1 construct: made in house; host or cells: E. coli BL21 (lambda DE3) pLysS, strain BGC88 carrying pKK4
T1 sequence (O50979 1-449): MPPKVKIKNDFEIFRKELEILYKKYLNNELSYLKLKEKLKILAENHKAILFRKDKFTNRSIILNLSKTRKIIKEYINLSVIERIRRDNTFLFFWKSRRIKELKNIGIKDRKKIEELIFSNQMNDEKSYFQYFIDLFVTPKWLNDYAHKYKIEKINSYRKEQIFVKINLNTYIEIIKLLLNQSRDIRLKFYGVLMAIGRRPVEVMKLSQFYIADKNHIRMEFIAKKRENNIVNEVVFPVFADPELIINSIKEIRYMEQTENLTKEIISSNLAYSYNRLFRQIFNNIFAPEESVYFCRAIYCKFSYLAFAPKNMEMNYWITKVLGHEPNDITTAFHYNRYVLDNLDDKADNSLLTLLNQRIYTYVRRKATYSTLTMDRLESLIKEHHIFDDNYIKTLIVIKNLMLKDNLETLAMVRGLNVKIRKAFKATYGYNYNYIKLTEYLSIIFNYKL
In words: In vitro telomere resolution by ResT (plasmid substrate, agarose gel). The class given is biochemical. The following applies: for effect of peptide on in vitro ResT activity: peptide inhibitors of tyrosine recombinase or topoisomerase, FIG. 9; for concentration at which complete inhibition of ResT activity was observed: pYT1 as the substrate, agarose gel, FIG. 8A; for inhibition of ResT: 2 mM, data not shown. Here is the method: The activity of the purified recombinant protein (ResT) was assayed using plasmids previously established to be in vivo substrates for telomere resolution in B. burgdorferi (Chaconas et al., 2001). pGCL15-6 has a 70 bp replicated left-end telomere from the linear plasmid Ip17 (FIG. 1B). Typical reaction conditions, herein defined as 1× reaction are as follows: 25 mM Tris-HCl [pH 8.5], 100 mM NaCl, 1 mM EDTA, 5 mM spermidine, 100 μg/ml bovine serum albumin, 5 μg/ml substrate DNA and 2 μg/ml ResT. Reactions (typically 30 μl) were incubated at 30° C. for 30 min and terminated by addition of SDS to a final concentration of 0.5%. Spermidine contributes an approximate 3-fold stimulation to the reaction and was therefore omitted from the reactions used for cleavage site determination. Linearized and relaxed plasmid substrates were prepared in 10-20 μg batches by reaction with the specified restriction enzyme with the manufacturers buffers or with Shope Fibroma Virus topoisomerase I (gift of Dr. David Evans, University of Guelph), in ResT reaction buffer. These reactions were then extracted with phenol/chloroform, chloroform alone, and subsequently ethanol precipitated and resuspended in 25 mM Hepes-NaOH [pH 7.6], 0.1 mM EDTA.
Reactions were performed containing increasing amounts of the topoisomerase inhibitors coumermycin A1 or novobiocin. The reactions were analyzed by agarose gel electrophoresis followed by staining with ethidium bromide.
In vitro ResT activity was assayed in the presence of peptide inhibitors provided by Dr. Anca Segall, San Diego State University. These peptides were previously characterized as inhibitors of tyrosine recombinase or topoisomerase activity (Cassell et al., 2000; Klemm et al., 2000). […] The results also raise the possibility for further development of peptide inhibitors of ResT for therapeutic and/or environmental agents to inhibit growth of Borrelia species.

The subject of experiment [1] is B. burgdorferi strain (NGR) carrying a triple mutation in the gyrB gene. In words: Growth of B. burgdorferi strain (NGR) carrying coumarin-resistant gyrase in culture. To be noted: read-out: IC50, inhibition of growth of B. burgdorferi carrying the resistant gyrase. In kind it is cell-based, Borrelia burgdorferi. Here is the method:
To determine whether coumermycin Al and novobiocin could block growth of B. burgdorferi in culture, a B. burgdorferi strain (NGR) carrying a triple mutation in the gyrB gene (Knight et al., 2000; Rosa et al., 1996) was used (provided by Dr. D. Scott Samuels, University of Montana, Missoula). The triple mutation in the gyrase B subunit renders the mutant DNA gyrase resistant to coumermycin A1 and novobiocin. B. burgdorferi carrying the resistant gyrase was grown in the absence, or in the presence of increasing amounts of coumermycin A1 or novobiocin. […] The drug concentrations for complete inhibition of growth were almost identical to the concentrations of both drugs required for complete inhibition of ResT in vitro.

Regarding “peptide #59: peptide which inhibits DNA cleavage by λ integrase (KWWCRW; Peptide #59)”, the “effect of peptide on in vitro ResT activity” value in the experiment with ResT is listed as “mild stimulator”.

For `CO[C@@H]1[C@@H](OC(N)=O)[C@@H](O)[C@H](Oc2ccc3c(O)c(NC(=O)c4ccc(O)c(CC=C(C)C)c4)c(=O)oc3c2C)OC1(C)C` [novobiocin], the IC50 in experiment [1] (Borreliella burgdorferi) was found to be 255 µM. For the same compound, on ResT, the “concentration at which complete inhibition of ResT activity was observed” value came to 1 mM.

With `CC[C@@]1(O)C(=O)OCc2c1cc1n(c2=O)Cc2cc3ccccc3nc2-1` [camptothecin], the “inhibition of ResT” value at ResT was “did not inhibit”.

Turning to “Peptide #52: peptide which traps the Holliday junction intermediate in λ recombination (WKHYNY; Peptide #52)”, in the experiment with ResT, the “effect of peptide on in vitro ResT activity” value is given as “did not have any effect”.

For the compound coumermycin A1, the 50% inhibitory concentration (IC50) in experiment [1] (gyrB triple mutant strain NGR, FIG. 8B) was found to be 75 µM. The “concentration at which complete inhibition of ResT activity was observed” value on ResT was determined as 0.15 mM.

On to `NCCCCNCCCN` [spermidine], for which, on ResT (5 mM spermidine in 1× reaction), the “stimulation of the in vitro telomere resolution reaction” value was roughly 3 fold.

For the compound `CCn1cc(C(=O)O)c(=O)c2ccc(C)nc21` [nalidixic acid], the “inhibition of ResT” value on ResT is on record as “did not inhibit”.

As usually defined, the IC50 is the concentration needed to halve the response being measured.
